# Laboratory results taken from patent US20090069623A1, “METHODS AND COMPOSITIONS FOR TREATMENT OR PREVENTION OF RADIATION-INDUCED FIBROSIS” (Virginia Commonwealth University Intellectual Property …, priority 2007, published 2009).
# System: CTGF, fibronectin (FN), collagen type IV (Col IV) mRNA
# Assay: RT-PCR of TGF-β1-induced mRNA expression in HFL-1 cells treated with simvastatin
# Assay type: cell-based, human
# Conditions: 10 ng/ml TGF-β1 for 20 hours, FIG. 7A
# Method: Cell Culture and Treatment. Normal human fetal lung fibroblasts (HFL-1) were purchased from the American Type Culture Collection (ATCC Number: CCL-153) and cultured in Ham's F12K medium (American Type Culture Collection) supplemented with 2 mM L-glutamine adjusted to contain 1.5 g/L sodium bicarbonate and 10% fetal bovine serum. Cells were maintained in humidified 5% CO2 at 37° C. Human dermal fibroblasts (HDF), derived from the dermis of normal human adult skin, were purchased from Invitrogen, Inc. and cultured in Medium-106 (Invitrogen, Inc., Catalogue No. M-106-500) containing LSGS Kit (Invitrogen, Inc., Catalogue No. […]) prior to use. After reaching 75-80% confluence, the medium was changed to serum free medium (SFM) for irradiation with different dose 1Gy, 2.5Gy, 5Gy, 7.5Gy and 10 Gy by using ^137Se. Alternatively, cells were treated with 5 ng/ml TGF-β1 (Sigma-Aldrich, Inc., Catalogue No. T7039) to stimulate CTGF production. The cells were then kept for 3 days in humidified 5% CO2 at 37° C. and subjected to Western immunoblot.^1 ^1What are the culture conditions (e.g., media) for M12 cells used in FIG. 3? RT-PCR analysis of CTGF, COL-IV, FN and hβ2M. […] The ability of statins to inhibit TGF-β1-mediated induction of CTGF, fibronectin, and collagen type IV was assessed in HFL-1 cells. […]
smiles,measurement,setting,value
"CCC(C)(C)C(=O)O[C@H]1C[C@@H](C)C=C2C=C[C@H](C)[C@H](CC[C@@H]3C[C@@H](O)CC(=O)O3)[C@H]21 [simvastatin, 2,2-dimethyl-butanoic acid(1S,3R,7S,8S,8aR)-1,2,3,7,8,8a-hexahydro-3,7-dimethyl-8-[2-[(2R,4R)-tetrahydro-4-hydroxy-6-oxo-2H-pyran-2-yl]ethyl]-1-naphthalenylester]","CTGF, FN, and Col IV mRNA expression",0.1 μM simvastatin,"reduction in CTGF, FN, and Col IV mRNA expression"
same,"CTGF, FN, and Col IV mRNA expression",increasing concentration of simvastatin,"reduction in CTGF, FN, and Col IV mRNA expression became more pronounced"
